Test results as given in patent US8741834B2, “Dipeptoid prodrugs and the use thereof” (Bayer Intellectual Property GmbH, priority 2008, dated 2014).
Counter-ions that a name gives are not always drawn.

Key:
[1] = Stability in buffer at various pH values; type: physicochemical
Experimental: 0.3 mg of the test substance is weighed into a 2 ml HPLC vial and 0.5 ml of acetonitrile or acetonitrile/DMSO (9:1) is added. The substance is dissolved by putting the sample vessel in an ultrasonic bath for about 10 seconds. Then 0.5 ml of the respective buffer solution is added, and the sample is again treated in the ultrasonic bath.
pH 2: 0.03 mol of citric acid, 0.061 mol of sodium chloride and 0.0082 mol of hydrochoric acid ad 1 liter of water;
pH 4: 1 liter of Millipore water is adjusted to pH 4.0 with 1 N hydrochloric acid;
pH 5: 0.096 mol of citric acid and 0.2 mol of sodium hydroxide ad 1 liter of water;
pH 6: 0.06 mol of citric acid and 0.16 mol of sodium hydroxide ad 1 liter of water;
pH 7.4: 90.0 g of sodium chloride, 13.61 g of potassium dihydrogen phosphate and 83.35 g of 1 N sodium hydroxide solution are made up to 1 liter with water; this solution is then further diluted 1:10 with Millipore water.
pH 8: 0.013 mol of borax and 0.021 mol of hydrochloric acid ad 1 liter of water.
5 μl portions of the test solution are analyzed by HPLC for their content of unchanged test substance, and of active substance (A) formed, every hour over a period of 24 hours at 37° C. The percentage areas of the appropriate peaks are used for quantification.
The ratios of the peak areas (F) at the respective time points in relation to the peak areas at the starting time are shown in Table 2 for representative exemplary embodiments: […]

[2] = Oral pharmacokinetics in Wistar rats; type: in vivo; details: after oral administration
Experimental: (§1) On the day before administration of the substance, a catheter for obtaining blood is implanted in the jugular vein of the experimental animals (male Wistar rats, body weight 200-250 g) under Isofluran® anesthesia.
(§2) On the day of the experiment, a defined dose of the test substance is administered as solution into the stomach by gavage. Blood samples (8-12 time points) are taken through the catheter sequentially over the course of 24 h after administration of the substance. Plasma is obtained by centrifuging the samples in heparinized tubes. Acetonitrile is added to a defined plasma volume per time point to precipitate proteins. After centrifugation, test substance and, where appropriate, known cleavage products of the test substance in the supernatant are determined quantitatively using a suitable LC/MS-MS method.
The measured plasma concentrations are used to calculate pharmacokinetic parameters of the test substance and of the active ingredient compound (A) liberated therefrom, such as AUC, Cmax, T1/2 (half-life).

[3] = Determination of the solubility in 5% strength aqueous dextrose solution; type: physicochemical; details: saline or isotonic, thermodynamic from solid, room temperature
Experimental: The test substance is suspended in 5% strength aqueous dextrose solution. This suspension is shaken at room temperature for 24 h. After ultracentrifugation at 224 000 g for 30 min, the supernatant is diluted with DMSO and analysed by HPLC. A two-point calibration plot of the test compound in DMSO is used for quantification.
Agilent 1100 with DAD (G1315A), quat. Pump (G1311A), autosampler CTC HTS PAL, degasser (G1322A) and column thermostat (G1316A); column: Phenomenex Gemini C18, 5 μm, 50 mm×2 mm; temperature: 40° C.; eluent A: water/phosphoric acid pH 2, eluent B: acetonitrile; flow rate: 0.7 ml/min; gradient: 0-0.5 min 85% A, 15% B; ramp 0.5-3 min 10% A, 90% B; 3-3.5 min 10% A, 90% B; ramp 3.5-4 min 85% A, 15% B; 4-5 min 85% A, 15% B.
Agilent 1100 with DAD (G1315A), quat. pump (G1311A), autosampler CTC HTS PAL, degasser (G1322A) and column thermostat (G1316A); column: VDSoptilab Kromasil 100 C18, 3.5 μm, 60 mm×2.1 mm; temperature: 30° C.; eluent A: water+5 ml of perchloric acid/liter, eluent B: acetonitrile; flow rate: 0.75 ml/min; gradient: 0-0.5 min 98% A, 2% B; ramp 0.5-4.5 min 10% A, 90% B; 4.5-6 min 10% A, 90% B; ramp 6.5-6.7 min 98% A, 2% B; 6.7-7.5 min 98% A, 2% B.

[4] = system: spontaneously hypertensive (SH rats); experiment: Blood pressure and heart rate measurements on awake rats; type: in vivo, rat; details: per oral administration of 3 mg/kg
Experimental: Awake rats which are spontaneously hypertensive (SH rats) and which carry an internal transmitter capable of continual measurement both of blood pressure and also heart rate (telemetric capture of hemodynamic parameters) are administered test substances orally in various doses. Subsequently, blood pressure and heart rate, and their changes, are recorded over 24 hours.

[5] = i.v. pharmacokinetics in Wistar rats; type: in vivo; details: after i.v. administration
Experimental: as §1
as §2, with “tail vein using a Hamilton® glass syringe (bolus administration, duration of administration <10 s).” for “stomach by gavage.”
The measured plasma concentrations are used to calculate pharmacokinetic parameters of the test substance and of the active ingredient compound (A) liberated therefrom, such as AUC, Cmax, T1/2 (half-life) and CL (clearance).**

| SMILES | % test substance after 4 h [F(t = 4 h) × 100/F(t = 0 h)] ([1]; pH 4, 37° C.) [%] | % test substance after 24 h [F(t = 24 h) × 100/F(t = 0 h)] ([1]; pH 4, 37° C.) [%] | % test substance after 4 h [F(t = 4 h) × 100/F(t = 0 h)] ([1]; pH 7.4, 37° C.) [%] | % test substance after 24 h [F(t = 24 h) × 100/F(t = 0 h)] ([1]; pH 7.4, 37° C.) [%] | solubility thermodynamic at 24 h [3] [µg/mL] | % test substance after 4 h [F(t = 4 h) × 100/F(t = 0 h)] ([1]; pH 5, 37° C.) [%] | % test substance after 24 h [F(t = 24 h) × 100/F(t = 0 h)] ([1]; pH 5, 37° C.) [%] | solubility at 24 h ([3]; 5% aqueous dextrose solution) [µg/mL] | % test substance after 4 h [F(t = 4 h) × 100/F(t = 0 h)] ([1]; pH 6, 37° C.) [%] | % test substance after 24 h [F(t = 24 h) × 100/F(t = 0 h)] ([1]; pH 6, 37° C.) [%] | detectability of the test substance in plasma [2] | Heart rate reduction (maximum lowering of heart rate) [4] [%] | detectability of the test substance in plasma [5] |
| --- | --- | --- | --- | --- | --- | --- | --- | --- | --- | --- | --- | --- | --- |
| CC[C@H](C)[C@H](N)C(=O)N[C@@H](C)C(=O)OC[C@H](COc1ccc(-c2c(C#N)c(N)nc(SCc3coc(-c4ccc(Cl)cc4)n3)c2C#N)cc1)OC(=O)[C@H](C)NC(=O)[C@@H](N)[C@@H](C)CC [Example 2, (2S)-3-{4-[2-Amino-6-({[2-(4-chlorophenyl)-1,3-oxazol-4-yl]methyl}sulfanyl)-3,5-dicyanopyridin-4-yl]phenoxy}propane-1,2-diyl (2S,2′S)-bis(2-{[(2S,3S)-2-amino-3-methylpentanoyl]amino}propanoate)dihydrochloride] | 100 | 100 | 100 | 68 | 670 | – | – | – | – | – | no longer detectable in plasma even at the first measurement point | – | – |
| N#Cc1c(N)nc(SCc2coc(-c3ccc(Cl)cc3)n2)c(C#N)c1-c1ccc(OC[C@H](O)CO)cc1 [Example 8A, 2-Amino-6-({[2-(4-chlorophenyl)-1,3-oxazol-4-yl]methyl}sulfanyl)-4-(4-{[(2R)-2,3-dihydroxypropyl]oxy}phenyl)pyridine-3,5-dicarbonitrile] | – | – | – | – | – | – | – | < 1.2 | – | – | – | 10 | – |
| C[C@H](NC(=O)CCN)C(=O)OC[C@H](COc1ccc(-c2c(C#N)c(N)nc(SCc3coc(-c4ccc(Cl)cc4)n3)c2C#N)cc1)OC(=O)[C@H](C)NC(=O)CCN [Example 32, (2S)-3-{4-[2-Amino-6-({[2-(4-chlorophenyl)-1,3-oxazol-4-yl]methyl}sulfanyl)-3,5-dicyanopyridin-4-yl]phenoxy}propane-1,2-diyl (2S,2′S)-bis{2-[(3-aminopropanoyl)amino]propanoate}dihydrochloride] | 100 | 100 | 96 | 81 | – | 100 | 100 | – | 99 | 98 | – | 10 | no longer detectable in plasma even at the first measurement point |
| C[C@H](N)C(=O)N[C@@H](C)C(=O)OC[C@H](COc1ccc(-c2c(C#N)c(N)nc(SCc3coc(-c4ccc(Cl)cc4)n3)c2C#N)cc1)OC(=O)[C@H](C)NC(=O)[C@H](C)N [Example 33, (2S)-3-{4-[2-Amino-6-({[2-(4-chlorophenyl)-1,3-oxazol-4-yl]methyl}sulfanyl)-3,5-dicyanopyridin-4-yl]phenoxy}propane-1,2-diyl(2S,2′S)-bis(2-{[(2S)-2-aminopropanoyl]amino}propanoate)dihydrochloride] | 100 | 100 | 29 | 0 | 620 | 100 | 97 | – | 78 | 28 | no longer detectable in plasma even at the first measurement point | 10 | no longer detectable in plasma even at the first measurement point |

Now from value to compound, other results behind:

| % test substance after 4 h [F(t = 4 h) × 100/F(t = 0 h)] ([1]; pH 4, 37° C.) [%] | % test substance after 24 h [F(t = 24 h) × 100/F(t = 0 h)] ([1]; pH 4, 37° C.) [%] | % test substance after 4 h [F(t = 4 h) × 100/F(t = 0 h)] ([1]; pH 7.4, 37° C.) [%] | % test substance after 24 h [F(t = 24 h) × 100/F(t = 0 h)] ([1]; pH 7.4, 37° C.) [%] | solubility thermodynamic at 24 h [3] [µg/mL] | % test substance after 4 h [F(t = 4 h) × 100/F(t = 0 h)] ([1]; pH 5, 37° C.) [%] | % test substance after 24 h [F(t = 24 h) × 100/F(t = 0 h)] ([1]; pH 5, 37° C.) [%] | solubility at 24 h ([3]; 5% aqueous dextrose solution) [µg/mL] | % test substance after 4 h [F(t = 4 h) × 100/F(t = 0 h)] ([1]; pH 6, 37° C.) [%] | % test substance after 24 h [F(t = 24 h) × 100/F(t = 0 h)] ([1]; pH 6, 37° C.) [%] | SMILES | detectability of the test substance in plasma [2] | Heart rate reduction (maximum lowering of heart rate) [4] [%] | detectability of the test substance in plasma [5] |
| --- | --- | --- | --- | --- | --- | --- | --- | --- | --- | --- | --- | --- | --- |
| 100 | 100 | 0 | 0 | – | 98 | 83 | – | – | – | C[C@H](NC(=O)CN)C(=O)OC[C@H](COc1ccc(-c2c(C#N)c(N)nc(SCc3coc(-c4ccc(Cl)cc4)n3)c2C#N)cc1)OC(=O)[C@H](C)NC(=O)CN [Example 7, (2S)-3-{4-[2-Amino-6-({[2-(4-chlorophenyl)-1,3-oxazol-4-yl]methyl}sulfanyl)-3,5-dicyanopyridin-4-yl]phenoxy}propane-1,2-diyl (2S,2′S)-bis{2-[(aminoacetyl)amino]propanoate}dihydrochloride] | no longer detectable in plasma even at the first measurement point | – | – |
| 100 | 100 | 82 | 34 | – | – | – | – | – | – | C[C@H](NC(=O)[C@@H]1CCCN1)C(=O)OC[C@H](COc1ccc(-c2c(C#N)c(N)nc(SCc3coc(-c4ccc(Cl)cc4)n3)c2C#N)cc1)OC(=O)[C@H](C)NC(=O)[C@@H]1CCCN1 [Example 8, (2S)-3-{4-[2-Amino-6-({[2-(4-chlorophenyl)-1,3-oxazol-4-yl]methyl}sulfanyl)-3,5-dicyanopyridin-4-yl]phenoxy}propane-1,2-diyl (2S,2′S)-bis(2-{[(2S)-pyrrolidin-2-ylcarbonyl]amino}propanoate)bis(trifluoroacetic acid) salt] | no longer detectable in plasma even at the first measurement point | – | – |
